Assay results as given in patent US7507727B2, “Substituted quinobenzoxazine analogs and methods of using thereof” (Cylene Pharmaceuticals, Inc., priority 2003, dated 2009).

Each compound was assayed against c-Myc template DNA (c-myc quadruplex) (assay: Quadruplex binding / stop assay (Taq polymerase arrest, capillary electrophoresis)). Details: read-out: S DATA; Table 1D, stop assay data.

First: CN1CCCC1CCNC(=O)c1cn2c3c(c(S(=O)(=O)CCc4cnccn4)c(F)cc3c1=O)Oc1cc3ccccc3cc1-2 (stereo not shown) [compound 1768]
Second: CN1CCCC1CCNC(=O)c1cn2c3c(c([S+]([O-])CCc4cnccn4)c(F)cc3c1=O)Oc1cc3ccccc3cc1-2 (stereo not shown) [compound 1769]
The IC50 of the first is 11-fold lower: 0.92 µM for the first, 10 µM for the second.

`CN1CCC[C@H]1CCNC(=O)c1cn2c3c(c(SCCc4cnccn4)c(F)cc3c1=O)Oc1cc3ccccc3cc1-2` [compound 1770] and `CN1CCCC1CCNC(=O)c1cn2c3c(c(SCCc4ccccn4)c(F)cc3c1=O)Oc1cc3ccccc3cc1-2` (stereo not shown) [compound 1781] are within 1.5-fold of each other in IC50: 4.7 µM for the first, 5.5 µM for the second.

`CN1CCCC1CCNC(=O)c1cn2c3c(c(N4CCC(c5ccccc5F)C4)c(F)cc3c1=O)Oc1cc3ccccc3cc1-2` (stereo not shown) [compound 1771] and `CN1CCCC1CCNC(=O)c1cn2c3c(c(N4CCC(c5cnccn5)C4)c(F)cc3c1=O)Oc1ccc(C#N)cc1-2` (stereo not shown) [compound 1776] are within 1.5-fold of each other in IC50: 10 µM for the first, 6.8 µM for the second.

First: O=c1c2cn3c4ccccc4oc4c(N5CCC(c6cnccn6)C5)c(F)cc(c2nn1CCN1CCCC1)c43 (stereo not shown) [compound 1772]
Second: N#Cc1ccc2c(c1)-n1cc(C(=O)NCCN3CCCC3)c(=O)c3cc(F)c(N4CCC(c5cnccn5)C4)c(c31)O2 (stereo not shown) [compound 1778]
The IC50 of the first is 4.9-fold higher: 14.1 µM for the first, 2.9 µM for the second.

`CN1CCCC1CCNC(=O)c1cn2c3c(c(N4CCC(c5cnccn5)C4)c(F)cc3c1=O)Oc1ccc(C(N)=O)cc1-2` (stereo not shown) [compound 1773] and `CN1CCCC1CCNC(=O)c1cn2c3c(c(N4CCC(c5cnccn5)C4)c(F)cc3c1=O)Oc1ccc(C#N)cc1-2` (stereo not shown) [compound 1777] are within 1.5-fold of each other in IC50: 6.1 µM for the first, 6.8 µM for the second.

`CN1CCCC1CCNC(=O)c1cn2c3c(c(SCCc4cnccn4)c(SCCc4cnccn4)cc3c1=O)Oc1cc3ccccc3cc1-2` (stereo not shown) [compound 1774] and `CN1CCCC1CCNC(=O)c1cn2c3c(c(SCCc4cnccn4)c(F)cc3c1=O)Oc1c-2ccc2ccccc12` (stereo not shown) [compound 1780] are within 1.5-fold of each other in IC50: 5.8 µM for the first, 5.2 µM for the second.

Compared with `CCOC(=O)c1cn2c3c(c(N4CCC(c5cnccn5)C4)c(F)cc3c1=O)Oc1ccc(C#N)cc1-2` (stereo not shown) [compound 1775], `CCN(CC)CCCCNC(=O)c1cn2c3c(c(N4CCC(c5cnccn5)C4)c(F)cc3c1=O)Oc1ccc(Cl)cc1-2` (stereo not shown) [compound 1802] is lower in IC50: greater than 15 µM for the first, 4 µM for the second. The second is the more potent here.

`CN1CCCC1CCNC(=O)c1cn2c3c(c(SCCc4cnccn4)c(F)cc3c1=O)Oc1ccccc1-2` (stereo not shown) [compound 1779] and `CN1CCCC1CCNC(=O)c1cn2c3c(c(SCCc4cnccn4)c(F)cc3c1=O)Oc1ccc(Cl)cc1-2` (stereo not shown) [compound 1787] cannot be ordered by IC50: greater than 15 µM for the first, greater than 15 µM for the second.

`O=C(NCCN1CCCC1)c1cn2c3c(c(SCCc4cnccn4)c(F)cc3c1=O)Oc1ccc(Cl)cc1-2` [compound 1783] and `O=C(NCCN1CCCC1)c1cn2c3c(c(SCCc4cnccn4)c(F)cc3c1=O)Oc1cc(Cl)ccc1-2` [compound 1784] cannot be ordered by IC50: greater than 15 µM for the first, greater than 15 µM for the second.

`O=C(NCCN1CCCC1)c1cn2c3c(c(SCCc4cnccn4)c(F)cc3c1=O)Oc1ccccc1-2` [compound 1785] and `O=C(NCCN1CCCC1)c1cn2c3c(c(SCCc4cnccn4)c(F)cc3c1=O)Oc1cccnc1-2` [compound 1786] cannot be ordered by IC50: greater than 15 µM for the first, greater than 15 µM for the second.

`O=C(NCCN1CCOCC1)c1cn2c3c(c(SCCc4cnccn4)c(F)cc3c1=O)Oc1cc(Cl)ccc1-2` [compound 1788] and `O=C(NCCN1CCOCC1)c1cn2c3c(c(N4CCC(c5cnccn5)C4)c(F)cc3c1=O)Oc1cc(Cl)ccc1-2` (stereo not shown) [compound 1790] cannot be ordered by IC50: greater than 15 µM for the first, greater than 15 µM for the second.

Compared with `O=C(NCCN1CCOCC1)c1cn2c3c(c(N4CCC(c5cnccn5)C4)c(F)cc3c1=O)Oc1ccc(Cl)cc1-2` (stereo not shown) [compound 1789], `N#Cc1ccc2c(c1)-n1cc(C(=O)NCCN3CCOCC3)c(=O)c3cc(F)c(N4CCC(N)C4)c(c31)O2` (stereo not shown) [compound 1793] is lower in IC50: greater than 15 µM for the first, 5.3 µM for the second.

`CC(C)N1CCN(c2c(F)cc3c(=O)c(C(=O)NCCCN4CCOCC4)cn4c3c2Oc2ccc(Cl)cc2-4)CC1` [compound 1791] and `CC(C)N1CCN(c2c(F)cc3c(=O)c(C(=O)NCCN4CCOCC4)cn4c3c2Oc2ccc(Cl)cc2-4)CC1` [compound 1804] cannot be ordered by IC50: greater than 15 µM for the first, greater than 15 µM for the second.

`CC(C)N1CCN(c2c(F)cc3c(=O)c(C(=O)NCCCN4CCOCC4)cn4c3c2Oc2cc(Cl)ccc2-4)CC1` [compound 1792] and `CC(C)N1CCN(c2c(F)cc3c(=O)c(C(=O)NCCN4CCOCC4)cn4c3c2Oc2cc(Cl)ccc2-4)CC1` [compound 1805] cannot be ordered by IC50: greater than 15 µM for the first, greater than 15 µM for the second.

`O=C(NCCN1CCCC1)c1cn2c3c(c(NCC4CCCO4)c(F)cc3c1=O)Oc1cc(Cl)ccc1-2` (stereo not shown) [compound 1794] and `O=C(NCCN1CCCC1)c1cn2c3c(c(NCC4CCCO4)c(F)cc3c1=O)Oc1ccc(Cl)cc1-2` (stereo not shown) [compound 1799] cannot be ordered by IC50: greater than 15 µM for the first, greater than 15 µM for the second.

First: CC(C)N1CCN(c2c(F)cc3c(=O)c(C(=O)NCCN4CCCC4)cn4c3c2Oc2ccc(C#N)cc2-4)CC1 [compound 1796]
Second: CC(C)N1CCN(c2c(F)cc3c(=O)c(C(=O)NCCN4CCCC4)cn4c3c2Oc2ccc(Cl)cc2-4)CC1 [compound 1798]
The IC50 of the first is higher: greater than 15 µM for the first, 6.6 µM for the second.

`CC(C)N1CCN(c2c(F)cc3c(=O)c(C(=O)NCCN4CCCC4)cn4c3c2Oc2cc(Cl)ccc2-4)CC1` [compound 1797] and `CN1CCN(c2c(F)cc3c(=O)c(C(=O)NCCN4CCCC4)cn4c3c2Oc2cc(Cl)ccc2-4)CC1` [compound 1817] are within 1.5-fold of each other in IC50: 8 µM for the first, 10 µM for the second.

`CC(C)N1CCN(c2c(F)cc3c(=O)c(C(=O)NCCN4CCCC4)cn4c3c2Oc2cccnc2-4)CC1` [compound 1801] and `CC(C)C(=O)N1CCN(c2c(F)cc3c(=O)c(C(=O)NCCN4CCCC4)cn4c3c2Oc2cc(Cl)ccc2-4)CC1` [compound 1823] are within 1.5-fold of each other in IC50: 8.2 µM for the first, 10 µM for the second.

Going from `CCN(CC)CCCCNC(=O)c1cn2c3c(c(N4CCC(N)C4)c(F)cc3c1=O)Oc1ccc(Cl)cc1-2` (stereo not shown) [compound 1803] to `CN1CCCC1CCNC(=O)c1cn2c3c(c(NCCCN)c(F)cc3c1=O)Oc1cc(Cl)ccc1-2` (stereo not shown) [compound 1809], the IC50 rises from 3 µM to greater than 15 µM. The first is the more potent here.

`CCOC(=O)c1cn2c3c(c(N4CCN(C(C)=O)CC4)c(F)cc3c1=O)Oc1cc(Cl)ccc1-2` [compound 1806] and `CC(=O)N1CCN(c2c(F)cc3c(=O)c(C(=O)NCCC4CCCN4C)cn4c3c2Oc2cc(Cl)ccc2-4)CC1` (stereo not shown) [compound 1807] cannot be ordered by IC50: greater than 15 µM for the first, greater than 15 µM for the second.

First: CN1CCCC1CCNC(=O)c1cn2c3c(c(NCCCNC(=O)OC(C)(C)C)c(F)cc3c1=O)Oc1cc(Cl)ccc1-2 (stereo not shown) [compound 1808]
Second: CN1CCCC1CCNC(=O)c1cn2c3c(c(N4CCN(C(=O)OC(C)(C)C)CC4)c(F)cc3c1=O)Oc1cc(Cl)ccc1-2 (stereo not shown) [compound 1819]
The IC50 of the first is higher: greater than 15 µM for the first, 10 µM for the second.

First: CN1CCCC1CCNC(=O)c1cn2c3c(c(N4CCN(c5ncccn5)CC4)c(F)cc3c1=O)Oc1cc(Cl)ccc1-2 (stereo not shown) [compound 1810]
Second: O=C(NCCN1CCCC1)c1cn2c3c(c(N4CCN(c5ncccn5)CC4)c(F)cc3c1=O)Oc1cc(Cl)ccc1-2 [compound 1813]
The IC50 of the first is 1.5-fold higher: 7.8 µM for the first, 5.1 µM for the second.

Going from `CC(=O)N1CCN(c2c(F)cc3c(=O)c(C(=O)NCCN4CCCC4)cn4c3c2Oc2cc(Cl)ccc2-4)CC1` [compound 1812] to `CCC(=O)N1CCN(c2c(F)cc3c(=O)c(C(=O)NCCN4CCCC4)cn4c3c2Oc2cc(Cl)ccc2-4)CC1` [compound 1822], the IC50 rises from 3.2 µM to 10 µM (3.1-fold). The first is the more potent here.

`O=C(NCCN1CCCC1)c1cn2c3c(c(NCCN4CCOCC4)c(F)cc3c1=O)Oc1cc(Cl)ccc1-2` [compound 1814] and `O=C(NCCN1CCCC1)c1cn2c3c(c(N4CCOCC4)c(F)cc3c1=O)Oc1cc(Cl)ccc1-2` [compound 1815] are within 1.5-fold of each other in IC50: 7.2 µM for the first, 10 µM for the second.

`O=C(NCCN1CCCC1)c1cn2c3c(c(N4CCN(C(=O)C(F)(F)F)CC4)c(F)cc3c1=O)Oc1cc(Cl)ccc1-2` [compound 1821] and `COCC(=O)N1CCN(c2c(F)cc3c(=O)c(C(=O)NCCN4CCCC4)cn4c3c2Oc2cc(Cl)ccc2-4)CC1` [compound 1825] are the same in IC50: 10 µM for the first, 10 µM for the second.

`O=C(NCCN1CCCC1)c1cn2c3c(c(N4CCN(C(=O)N5CCC[C@H]5C(=O)C(F)(F)F)CC4)c(F)cc3c1=O)Oc1cc(Cl)ccc1-2` [compound 1824] and `O=C(NCCN1CCCC1)c1cn2c3c(c(N4CCN(Cc5ccoc5)CC4)c(F)cc3c1=O)Oc1cc(Cl)ccc1-2` [compound 1832] are within 1.5-fold of each other in IC50: 9.4 µM for the first, 10 µM for the second.

`O=C(NCCN1CCCC1)c1cn2c3c(c(N4CCN(Cc5ccco5)CC4)c(F)cc3c1=O)Oc1cc(Cl)ccc1-2` [compound 1829] and `O=C(NCCN1CCCC1)c1cn2c3c(c(N4CCN(Cc5ccc[nH]5)CC4)c(F)cc3c1=O)Oc1cc(Cl)ccc1-2` [compound 1833] are the same in IC50: 10 µM for the first, 10 µM for the second.

`Cn1cccc1CN1CCN(c2c(F)cc3c(=O)c(C(=O)NCCN4CCCC4)cn4c3c2Oc2cc(Cl)ccc2-4)CC1` [compound 1830] and `O=C(NCCN1CCCC1)c1cn2c3c(c(N4CCN(Cc5ccsc5)CC4)c(F)cc3c1=O)Oc1cc(Cl)ccc1-2` [compound 1831] are within 1.5-fold of each other in IC50: 8.6 µM for the first, 9.8 µM for the second.

Same assay, conditions: read-out: Stop Data c-Myc μM; concentration at which 50% of the DNA was arrested (arrested:full-length 1:1)

`Nc1c(F)c(N2CCC(N)C2)c2c3c1c(=O)c(C(=O)O)cn3-c1cc3ccccc3cc1O2` (stereo not shown) [compound 5] gave an IC50 of 1.75 µM.

The compounds below were run on HeLa cells (assay: MTS cell proliferation and/or cytotoxicity assay). Details: Homo sapiens, HeLa, 72 h, concentration at which 50% of antiproliferative cell response is seen; 3 days incubation; read-out: MTS Data Hella.
Assay type: cell-based, Human
Method: Cell culture. Human cervical epithelial cells (HeLa cells) were obtained from American Type Culture Collection (Manassas, Va.). Cells were grown in Eagle's minimum essential medium (MEM, Hyclone, Utah) supplemented with 2 mM Glutamine, 0.1 mM nonessential amino acid, 1 mM Na Pyruvate, 1.5 g/L NaHCO3, 50 mg/L gentamicin, and 10% fetal bovine serum (Hyclone, USA) in a humidified atmosphere of 5% CO2 at 37° C.
MTS assays. Antiproliferative effects of the compounds were tested by the CellTiter 96 AQueous assay (Promega, WI), which is a calorimetric assay for determining the number of viable cells. (See, e.g., Wang, L., et al., Methods Cell Sci (1996) 18:249-255). In one example, cells (4,500 cells/well) were seeded on 96 well flat bottom plates (Corning, N.Y.) in 100 μl of culture medium without any anticancer drug on day 0, and the culture medium was exchanged for that //contained anticancer drugs at various concentrations on day 1. After incubation for 3 days under normal growth conditions (on day 4), the monolayers were washed once in PBS, and the medium was switched to 100 μl of PBS in each of the 96 well plate. After mixing MTS and PMS at the ratio of 20:1, 20 μl of MTS/PMS solution was added to each of the 96 well plate and incubated for 4 hours in a humidified atmosphere of 5% CO2 at 37° C. The absorbance was read at 490 nm using FLUOstar Galaxy 96 well plate reader (BMG Labtechnologies, Germany). μM concentrations (MTS data) reported in Table 1 are concentrations at which 50% of antiproliferative cell response is seen.

`Nc1c(F)c(N2CCC(N)C2)c2c3c1c(=O)c(C(=O)O)cn3-c1cc3ccccc3cc1O2` (stereo not shown) [compound 5] gave an IC50 of 7.2 µM.
